Source: patent publication US12103920B2, “Cereblon binding compounds, compositions thereof, and methods of treatment therewith” (Celgene Corporation, priority 2020, dated 2024)
Where a name gives a salt, the structure may show the parent alone.

Biological target: T1, AR protein in VCaP cells (Homo sapiens, UniProt P10275)
T1 construct: endogenous in cells; host or cells: VCaP cells
T1 sequence (P10275 1-920): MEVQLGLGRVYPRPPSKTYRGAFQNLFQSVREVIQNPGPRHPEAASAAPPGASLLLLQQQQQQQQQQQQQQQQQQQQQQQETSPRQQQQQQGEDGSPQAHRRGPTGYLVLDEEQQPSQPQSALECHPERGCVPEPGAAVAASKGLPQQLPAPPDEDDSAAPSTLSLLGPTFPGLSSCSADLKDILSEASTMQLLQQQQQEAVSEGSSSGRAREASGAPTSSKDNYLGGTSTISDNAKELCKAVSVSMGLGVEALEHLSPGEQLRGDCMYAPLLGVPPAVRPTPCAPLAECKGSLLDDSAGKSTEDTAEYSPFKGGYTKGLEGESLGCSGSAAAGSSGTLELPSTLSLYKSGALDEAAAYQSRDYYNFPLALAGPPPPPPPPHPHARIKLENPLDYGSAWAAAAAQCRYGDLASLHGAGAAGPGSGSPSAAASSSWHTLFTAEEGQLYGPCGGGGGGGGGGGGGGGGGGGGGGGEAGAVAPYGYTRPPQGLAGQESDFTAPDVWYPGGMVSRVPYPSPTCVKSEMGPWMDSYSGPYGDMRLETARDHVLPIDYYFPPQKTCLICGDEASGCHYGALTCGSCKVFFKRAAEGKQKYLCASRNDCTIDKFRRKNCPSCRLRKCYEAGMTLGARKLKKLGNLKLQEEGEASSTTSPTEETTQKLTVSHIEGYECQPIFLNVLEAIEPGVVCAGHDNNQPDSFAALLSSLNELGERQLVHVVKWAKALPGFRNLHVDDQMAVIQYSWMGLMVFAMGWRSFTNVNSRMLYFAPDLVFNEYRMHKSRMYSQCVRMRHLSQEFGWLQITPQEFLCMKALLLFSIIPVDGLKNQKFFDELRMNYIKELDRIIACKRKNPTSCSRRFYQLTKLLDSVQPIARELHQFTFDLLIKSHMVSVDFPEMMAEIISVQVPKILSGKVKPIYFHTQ
Test: VCAP AR Degradation Assay
Assay type: cell-based
Details: 24 h, AR ELISA; for DC50: concentration at 50% of DMSO control (50% AR degradation); for Y: lowest measured AR level normalized to DMSO control
Description: VCAP AR Degradation Assay. Test compounds were pre-dispensed into a Corning CellBind 96-well clear bottom plate (Cat #3300) using an acoustic dispenser to make a 10-point concentration series at 1:3 dilution for each compound. The final top concentration of each compound was 5 μM. DMSO at a final concentration of 0.1% was used as a control. VCaP cells cultured in DMEM with 8% fetal bovine serum (FBS) were seeded at 50K cells per well in a 200 μL volume into the compound plate and incubated at 37° C. in a CO2 incubator for 24 h. The medium was carefully removed from the cells and the plate was placed on ice. One hundred μL of ice-cold 1× cell lysis buffer from Cell Signaling Technologies (Cat #9803) was added to each well of the cells and the plate was incubated at 4° C. on a shaker for 1 h. Fifteen μL of cell lysate was used for AR ELISA detection using a PathScan Total Sandwich AR ELISA kit (Cell Signaling Technology, Cat #12580). AR levels in compound-treated wells were normalized to that of DMSO control and expressed as percent of control (PoC) (y). A Four Parameter Logistic Model (Sigmoidal Dose-Response Model) was used to determine the compound's DC50, and EC50, using the following equation: y=(A+((B−A)/(1+((C/x)^D)))) • A=YMin (lowest AR level normalized to DMSO control in response to compound treatment, as determined by curve fit) • B=YMax (maximum AR level as determined by curve fit) • C=EC50 • D=Hill Slope • x=compound concentration • EC50=the concentration of compound when y=(YMax−YMin)/2 • DC50=the concentration of the compound when y=50% of DMSO control (50% AR degradation) • y=AR protein level normalized to DMSO control
The lowest measured AR level normalized to DMSO control in response to compound treatment, termed Y value, was used to characterize the compound-mediated AR degradation efficiency.

Structure (SMILES)	DC50	Y
CC1(C)C(=O)N(c2ccc(C#N)c(C(F)(F)F)c2)C(=S)N1[C@H]1CC[C@H](CCCN2CCN(CC(=O)Nc3cccc(NC4CCC(=O)NC4=O)c3)[C@@H](C(F)(F)F)C2)CC1 (stereo partly drawn) [Cmpd 29, 2-((R)-4-(3-((trans)-4-(3-(4-Cyano-3-(trifluoromethyl)phenyl)-5,5-dimethyl-4-oxo-2-thioxoimidazolidin-1-yl)cyclohexyl)propyl)-2-(trifluoromethyl)piperazin-1-yl)-N-(3-((2,6-dioxopiperidin-3-yl)amino)phenyl)acetamide]	5 to 10 nM	* (0<Y≤15%)
CC1(C)C(=O)N(c2cnc(C#N)c(C(F)(F)F)c2)C(=S)N1[C@H]1CC[C@H](CCCN2CCN(CC(=O)Nc3cccc(NC4CCC(=O)NC4=O)c3)[C@@H](C(F)(F)F)C2)CC1 (stereo partly drawn) [Cmpd 25, 2-((R)-4-(3-((trans)-4-(3-(6-Cyano-5-(trifluoromethyl)pyridin-3-yl)-5,5-dimethyl-4-oxo-2-thioxoimidazolidin-1-yl)cyclohexyl)propyl)-2-(trifluoromethyl)piperazin-1-yl)-N-(3-((2,6-dioxopiperidin-3-yl)amino)phenyl)acetamide]	5 to 10 nM	* (0<Y≤15%)
C[C@@H]1CN(CCC[C@H]2CC[C@H](N3C(=S)N(c4ccc(C#N)c(C(F)(F)F)c4)C(=O)C3(C)C)CC2)C[C@H](C)N1CC(=O)Nc1cc(F)cc(NC2CCC(=O)NC2=O)c1 (stereo partly drawn) [Cmpd 38, 2-((2R,6S)-4-(3-((trans)-4-(3-(4-Cyano-3-(trifluoromethyl)phenyl)-5,5-dimethyl-4-oxo-2-thioxoimidazolidin-1-yl)cyclohexyl)propyl)-2,6-dimethylpiperazin-1-yl)-N-(3-((2,6-dioxopiperidin-3-yl)amino)-5-fluorophenyl)acetamide]	5 to 10 nM	* (0<Y≤15%)
C[C@@H]1CN(CCC[C@H]2CC[C@H](N3C(=S)N(c4cnc(C#N)c(Cl)c4)C(=O)C3(C)C)CC2)C[C@H](C)N1CC(=O)Nc1cccc(NC2CCC(=O)NC2=O)c1 (stereo partly drawn) [Cmpd 13, 2-((2R,6S)-4-(3-(trans-4-(3-(5-Chloro-6-cyanopyridin-3-yl)-5,5-dimethyl-4-oxo-2-thioxoimidazolidin-1-yl)cyclohexyl)propyl)-2,6-dimethylpiperazin-1-yl)-N-(3-((2,6-dioxopiperidin-3-yl)amino)phenyl)acetamide hydrochloride]	5 to 10 nM	*** (25%<Y<50%)
CC1(C)C(=O)N(c2ccc(C#N)c(C(F)(F)F)c2)C(=S)N1[C@H]1CC[C@H](OCCN2CCN(CC(=O)Nc3cc(Cl)cc(NC4CCC(=O)NC4=O)c3)[C@@H](C(F)(F)F)C2)CC1 (stereo partly drawn) [Cmpd 27, N-(3-Chloro-5-((2,6-dioxopiperidin-3-yl)amino)phenyl)-2-((R)-4-(2-(((trans)-4-(3-(4-cyano-3-(trifluoromethyl)phenyl)-5,5-dimethyl-4-oxo-2-thioxoimidazolidin-1-yl)cyclohexyl)oxy)ethyl)-2-(trifluoromethyl)piperazin-1-yl)acetamide]	10 to 100 nM	* (0<Y≤15%)
C[C@@H]1C[C@H](CCO[C@H]2CC[C@H](N3C(=S)N(c4ccc(C#N)c(C(F)(F)F)c4)C(=O)C3(C)C)CC2)C[C@H](C)N1CC(=O)Nc1cccc(NC2CCC(=O)NC2=O)c1 (stereo partly drawn) [Cmpd 16, 2-((2R,4r,6S)-4-(2-((trans-4-(3-(4-Cyano-3-(trifluoromethyl)phenyl)-5,5-dimethyl-4-oxo-2-thioxoimidazolidin-1-yl)cyclohexyl)oxy)ethyl)-2,6-dimethylpiperidin-1-yl)-N-(3-((2,6-dioxopiperidin-3-yl)amino)phenyl)acetamide hydrochloride]	5 to 10 nM	* (0<Y≤15%)
C[C@@H]1CN(CCCO[C@H]2CC[C@H](N3C(=S)N(c4cnc(C#N)c(C(F)(F)F)c4)C(=O)C3(C)C)CC2)C[C@H](C)N1CC(=O)Nc1cccc(NC2CCC(=O)NC2=O)c1 (stereo partly drawn) [Cmpd 10, 2-((2R,6S)-4-(3-((trans-4-(3-(6-Cyano-5-(trifluoromethyl)pyridin-3-yl)-5,5-dimethyl-4-oxo-2-thioxoimidazolidin-1-yl)cyclohexyl)oxy)propyl)-2,6-dimethylpiperazin-1-yl)-N-(3-((2,6-dioxopiperidin-3-yl)amino)phenyl)acetamide hydrochloride]	≤ 5 nM	** (15%<Y≤20%)
CC1(C)C(=O)N(c2ccc(C#N)c(C(F)(F)F)c2)C(=S)N1[C@H]1CC[C@H](OCCN2CCN(CC(=O)Nc3cccc(NC4CCC(=O)NC4=O)c3)[C@H](C(F)(F)F)C2)CC1 (stereo partly drawn) [Cmpd 40, 2-((S)-4-(2-(((trans)-4-(3-(4-Cyano-3-(trifluoromethyl)phenyl)-5,5-dimethyl-4-oxo-2-thioxoimidazolidin-1-yl)cyclohexyl)oxy)ethyl)-2-(trifluoromethyl)piperazin-1-yl)-N-(3-((2,6-dioxopiperidin-3-yl)amino)phenyl)acetamide]	10 to 100 nM	*** (25%<Y<50%)
C[C@@H]1C[C@H](OCCC[C@H]2CC[C@H](N3C(=S)N(c4ccc(C#N)c(C(F)(F)F)c4)C(=O)C3(C)C)CC2)C[C@H](C)N1CC(=O)Nc1cccc(NC2CCC(=O)NC2=O)c1 (stereo partly drawn) [Cmpd 32, 2-((2R,4r,6S)-4-(3-((trans)-4-(3-(4-Cyano-3-(trifluoromethyl)phenyl)-5,5-dimethyl-4-oxo-2-thioxoimidazolidin-1-yl)cyclohexyl)propoxy)-2,6-dimethylpiperidin-1-yl)-N-(3-((2,6-dioxopiperidin-3-yl)amino)phenyl)acetamide]	10 to 100 nM	** (15%<Y≤20%)
C[C@@H]1CN(CCO[C@H]2CC[C@H](N3C(=S)N(c4ccc(C#N)c(Cl)c4)C(=O)C3(C)C)CC2)C[C@H](C)N1CC(=O)Nc1cccc(NC2CCC(=O)NC2=O)c1 (stereo partly drawn) [Cmpd 4, 2-((2R,6S)-4-(2-((trans-4-(3-(3-Chloro-4-cyanophenyl)-5,5-dimethyl-4-oxo-2-thioxoimidazolidin-1-yl)cyclohexyl)oxy)ethyl)-2,6-dimethylpiperazin-1-yl)-N-(3-((2,6-dioxopiperidin-3-yl)amino)phenyl)acetamide hydrochloride]	≤ 5 nM	** (15%<Y≤20%)
CC1(C)C(=O)N(c2cnc(C#N)c(C(F)(F)F)c2)C(=S)N1[C@H]1CC[C@H](OCCCN2CCN(CC(=O)Nc3cccc(NC4CCC(=O)NC4=O)c3)[C@@H](C(F)(F)F)C2)CC1 (stereo partly drawn) [Cmpd 28, 2-((R)-4-(3-(((trans)-4-(3-(6-cyano-5-(trifluoromethyl)pyridin-3-yl)-5,5-dimethyl-4-oxo-2-thioxoimidazolidin-1-yl)cyclohexyl)oxy)propyl)-2-(trifluoromethyl)piperazin-1-yl)-N-(3-((2,6-dioxopiperidin-3-yl)amino)phenyl)acetamide]	≤ 5 nM	* (0<Y≤15%)
C[C@@H]1C[C@@H](CCO[C@H]2CC[C@H](N3C(=S)N(c4ccc(C#N)c(C(F)(F)F)c4)C(=O)C3(C)C)CC2)C[C@H](C)N1CC(=O)Nc1cccc(NC2CCC(=O)NC2=O)c1 (stereo partly drawn) [Cmpd 15, 2-((2R,4s,6S)-4-(2-((trans-4-(3-(4-Cyano-3-(trifluoromethyl)phenyl)-5,5-dimethyl-4-oxo-2-thioxoimidazolidin-1-yl)cyclohexyl)oxy)ethyl)-2,6-dimethylpiperidin-1-yl)-N-(3-((2,6-dioxopiperidin-3-yl)amino)phenyl)acetamide hydrochloride]	5 to 10 nM	* (0<Y≤15%)
